According to ChEMBL document CHEMBL5608244, “Preclinical Evaluation of Dihydropyrazole-Cored Positron Emission Tomography (PET) Ligands for Imaging of Receptor-Interacting Serine/Threonine Protein Kinase 1 (RIPK1) in the Brain” (J Med Chem, 2024):

Key:
[1] = Retention time of the compound by HPLC method; format: physicochemical
[2] = Lipophilicity, logD of compound at pH 7.4 by shake flask method; format: physicochemical; details: buffer
[3] = Drug uptake in Sprague-Dawley rat brain at 10 to 17.6 MBq, iv pretreated with 1-(5-(3-fluorophenyl)-4,5-dihydro-1H-pyrazol-1-yl)-2,2-dimethylpropan-1-one followed by compound administration measured upto 30 mins by PET analysis; format: ADME, organism-based; details: in vivo, 0.5 h, dose 10-17.6 MBq
[4] = Drug uptake in Sprague-Dawley rat bone at 10 to 17.6 MBq, iv treated upto 30 mins by PET analysis; format: ADME, organism-based, Bone element; details: in vivo, 0.5 h, dose 10-17.6 MBq
[5] = Drug uptake in Sprague-Dawley rat brain at 10 to 17.6 MBq, iv treated for about 1 min by PET analysis; format: ADME, organism-based; details: in vivo, dose 10-17.6 MBq
[6] = Stability in saline measured for 60 to 150 mins by reversed-phase HPLC analysis; format: physicochemical; details: buffer; time 60-150 min
[7] = Stability in Balb/c mouse plasma measured for 60 to 150 mins by reversed-phase HPLC analysis; format: ADME; details: time 60-150 min

| Structure (SMILES) | Retention_time [1] [min] | logD [2] | Drug uptake [3] | Drug uptake [4] | SUVmax [5] | Stability [6] [%] | Stability [7] [%] |
| --- | --- | --- | --- | --- | --- | --- | --- |
| Cc1ccc(C2CC=NN2C(=O)C(C)(C)C)cc1F (stereo not given) | 21.7 | – | – | – | – | – | – |
| CC(C)(C)C(=O)N1N=CCC1c1cccc(F)c1 (stereo not given) | 21.74 | – | – | – | – | – | – |
| CC(C)(C)C(=O)N1N=CCC1c1cc(F)cc(F)c1 (stereo not given) | 13.66 | – | – | – | – | – | – |
| Cc1ccc(C2CC=NN2C(=O)C(C)(C)C)cc1[18F] (stereo not given) | 21.81 | 2.98 | Active | Not Active | 1.4 | – | – |
| CC(C)(C)C(=O)N1N=CCC1c1cc(F)cc([18F])c1 (stereo not given) | 13.76 | 2.58 | Active | Not Active | 1.8 | > 99 | > 97 |
